Test results as given in PMC8228849, “Characterization of the Highly Efficient Acid-Stable Xylanase and β-Xylosidase System from the Fungus Byssochlamys spectabilis ATHUM 8891 (Paecilomyces variotii ATHUM 8891)” (Journal of Fungi, 2021).

T1: PvXyd3A (Paecilomyces variotii, UniProt A0A443HSR8)
T1 construct: gene C8Q69DRAFT_305813; native secreted enzyme purified from culture supernatant (Brewer's Spent Grain); 78 kDa; pI between 3 and 4; GH3; once misprinted PvXyd11A
T1 sequence (A0A443HSR8 28-800): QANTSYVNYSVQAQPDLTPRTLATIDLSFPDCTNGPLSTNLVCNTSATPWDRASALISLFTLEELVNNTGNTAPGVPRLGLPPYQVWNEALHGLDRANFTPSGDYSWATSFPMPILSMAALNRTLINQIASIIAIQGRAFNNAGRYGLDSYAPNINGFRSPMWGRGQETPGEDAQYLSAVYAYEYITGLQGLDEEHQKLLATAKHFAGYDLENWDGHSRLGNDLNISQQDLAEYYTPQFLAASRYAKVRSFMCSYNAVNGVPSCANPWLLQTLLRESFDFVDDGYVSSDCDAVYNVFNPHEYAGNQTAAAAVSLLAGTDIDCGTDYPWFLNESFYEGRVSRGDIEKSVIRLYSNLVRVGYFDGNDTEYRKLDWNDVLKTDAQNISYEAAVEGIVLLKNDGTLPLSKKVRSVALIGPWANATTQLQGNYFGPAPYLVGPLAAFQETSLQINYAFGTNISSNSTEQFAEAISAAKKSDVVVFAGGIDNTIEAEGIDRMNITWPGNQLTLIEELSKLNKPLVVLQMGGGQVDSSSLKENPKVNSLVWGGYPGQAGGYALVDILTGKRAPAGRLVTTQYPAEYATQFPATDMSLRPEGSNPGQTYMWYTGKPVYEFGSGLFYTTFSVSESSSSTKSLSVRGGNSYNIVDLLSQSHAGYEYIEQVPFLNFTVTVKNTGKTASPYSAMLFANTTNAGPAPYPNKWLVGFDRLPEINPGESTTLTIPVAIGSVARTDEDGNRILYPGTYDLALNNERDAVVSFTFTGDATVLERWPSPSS


Experiments:
PvXyd3A = molecular target: T1, PvXyd3A; assay: pNP-X hydrolysis initial rates, Lineweaver-Burk; format: biochemical; settings: competitive; substrate pNP-X; xylose at 5, 20 and 50 mM; methods text misprints the enzyme as Xyn3A
purified protein = substrate: O=[N+]([O-])c1ccc(O[C@@H]2OC[C@@H](O)[C@H](O)[C@H]2O)cc1; assay: purified protein; format: biochemical, Paecilomyces variotii; settings: standard assay pH 4 citrate-phosphate, 50 °C, 0.1-20 mM pNP-X, Table 4 prints 0.45 ± 0.06 mM

| Ki (PvXyd3A) [mM] | Molecule | Km (purified protein) [µM] |
| --- | --- | --- |
| 10.2 | OC1OC[C@@H](O)[C@H](O)[C@H]1O (some centres unmarked) [X1, xylose] | – |
| – | PvXyd3A (Paecilomyces variotii) (protein, native secreted enzyme purified from culture supernatant (Brewer's Spent Grain); 78 kDa; pI between 3 and 4; GH3; once misprinted PvXyd11A) QANTSYVNYSVQAQPDLTPRTLATIDLSFPDCTNGPLSTNLVCNTSATPWDRASALISLFTLEELVNNTGNTAPGVPRLGLPPYQVWNEALHGLDRANFTPSGDYSWATSFPMPILSMAALNRTLINQIASIIAIQGRAFNNAGRYGLDSYAPNINGFRSPMWGRGQETPGEDAQYLSAVYAYEYITGLQGLDEEHQKLLATAKHFAGYDLENWDGHSRLGNDLNISQQDLAEYYTPQFLAASRYAKVRSFMCSYNAVNGVPSCANPWLLQTLLRESFDFVDDGYVSSDCDAVYNVFNPHEYAGNQTAAAAVSLLAGTDIDCGTDYPWFLNESFYEGRVSRGDIEKSVIRLYSNLVRVGYFDGNDTEYRKLDWNDVLKTDAQNISYEAAVEGIVLLKNDGTLPLSKKVRSVALIGPWANATTQLQGNYFGPAPYLVGPLAAFQETSLQINYAFGTNISSNSTEQFAEAISAAKKSDVVVFAGGIDNTIEAEGIDRMNITWPGNQLTLIEELSKLNKPLVVLQMGGGQVDSSSLKENPKVNSLVWGGYPGQAGGYALVDILTGKRAPAGRLVTTQYPAEYATQFPATDMSLRPEGSNPGQTYMWYTGKPVYEFGSGLFYTTFSVSESSSSTKSLSVRGGNSYNIVDLLSQSHAGYEYIEQVPFLNFTVTVKNTGKTASPYSAMLFANTTNAGPAPYPNKWLVGFDRLPEINPGESTTLTIPVAIGSVARTDEDGNRILYPGTYDLALNNERDAVVSFTFTGDATVLERWPSPSS | 480 ± 60 |
